The values below come from US10988523B2, “Modified lipidated Relaxin B chain peptides and their therapeutic use” (Sanofi, priority 2018, dated 2021).

What is called EC50 is the concentration giving half of the maximal effect. As a reminder, the Emax is the size of the effect at its maximum, as opposed to the concentration needed.

*1 amine or outer side, *2 acyl side, *3 side chain or, on linkers, in order; H or OH if unused. Where a SMILES comes first, the peptide text is derived from it. Side-chain parts run from the residue outwards. [ ]: non-standard residue; d: D form. The star is where a group is joined. Docosanoyl = CCCCCCCCCCCCCCCCCCCCCC(=O)*; γGlu = O=C(O)[C@H](CCC(=O)[*:2])N[*:1]; Stearoyl = CCCCCCCCCCCCCCCCCC(=O)*; Palmitoyl = CCCCCCCCCCCCCCCC(=O)*; Myristoyl = CCCCCCCCCCCCCC(=O)*; αMeK = C[C@](N)(CCCCN)C(=O)O; Nle = CCCC[C@H](N)C(=O)O; AEEA = NCCOCCOCC(=O)O; Aib = CC(C)(N)C(=O)O

For the assay, the target named is T1, RXFP1 (Homo sapiens, UniProt Q9HBX9).
T1 construct: OVCAR5 cells expressing endogenous RXFP1; endogenous in cells; host or cells: OVCAR5 cells
T1 sequence (Q9HBX9 1-757): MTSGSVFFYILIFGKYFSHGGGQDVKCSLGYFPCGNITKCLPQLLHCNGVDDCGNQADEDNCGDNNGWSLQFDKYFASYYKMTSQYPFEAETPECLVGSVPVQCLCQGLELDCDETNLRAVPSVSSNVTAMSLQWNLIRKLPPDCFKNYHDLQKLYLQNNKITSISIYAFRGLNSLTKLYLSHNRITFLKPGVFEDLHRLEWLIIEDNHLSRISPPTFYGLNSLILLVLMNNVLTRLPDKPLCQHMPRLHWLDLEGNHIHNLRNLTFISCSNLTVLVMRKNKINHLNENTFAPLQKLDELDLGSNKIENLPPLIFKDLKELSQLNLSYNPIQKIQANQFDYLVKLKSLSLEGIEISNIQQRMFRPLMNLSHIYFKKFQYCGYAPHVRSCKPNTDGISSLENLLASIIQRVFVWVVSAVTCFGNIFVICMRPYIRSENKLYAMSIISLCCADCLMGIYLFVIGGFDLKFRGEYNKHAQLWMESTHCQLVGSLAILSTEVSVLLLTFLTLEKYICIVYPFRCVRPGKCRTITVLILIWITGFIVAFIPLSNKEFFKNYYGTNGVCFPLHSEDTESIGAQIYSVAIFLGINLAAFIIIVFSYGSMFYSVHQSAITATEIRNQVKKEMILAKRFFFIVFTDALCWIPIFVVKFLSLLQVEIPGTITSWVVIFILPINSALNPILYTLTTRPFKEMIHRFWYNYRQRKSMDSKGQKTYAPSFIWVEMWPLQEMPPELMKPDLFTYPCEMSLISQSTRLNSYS
In words: OVCAR5 cAMP assay (HTRF), RXFP1 agonist activity. It counts as cell-based. The note with it: for EC50: OVCAR5 cells, cAMP HTRF, read-out: EC50 (nM), OVCAR 5 cells (cAMP); for Emax: OVCAR-5, maximal cAMP relative to H2-relaxin maximum (100%), read-out: EMax, OVCAR 5 cells (cAMP). In a few lines: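 cAMP accumulation readout: after 1 mM IBMX for 40 min, endogenous-RXFP1 OVCAR5 cells got rising peptide concentrations without FCS, 30 min, 37° C, then lysis with HTRF cAMP reagents. Nonlinear regression gave EC50; Emax expressed relative to H2-relaxin maximum, same occasion.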
In general terms: cAMP levels reflect the balance of adenylyl cyclase and phosphodiesterase activity.

`CCCCCCCCCCCCCCCCCC(=O)N[C@@H](CCC(=O)N[C@@H](CCC(=O)N[C@@H](CCC(=O)NCCOCCOCC(=O)NCCOCCOCC(=O)NCCOCCOCC(=O)NCCCC[C@H](NC(=O)[C@H](CCCCNC(C)=O)NC(=O)[C@H](CCCCN)NC(=O)[C@H](CCCNC(=N)N)NC(=O)C(C)(C)NC(=O)[C@H](CO)NC(=O)[C@H](Cc1ccc(O)cc1)NC(=O)[C@@H](NC(=O)[C@H](CO)NC(=O)[C@H](CCCC)NC(=O)CNC(=O)[C@H](CCC(=O)O)NC(=O)C(C)(C)NC(=O)C(C)(C)NC(=O)[C@@H](NC(=O)[C@H](CCCCNC(C)=O)NC(=O)[C@H](C)NC(=O)[C@H](CCCNC(=N)N)NC(=O)[C@@H](NC(=O)[C@H](CCCCN)NC(=O)[C@H](CCC(=O)O)NC(=O)[C@H](CCCNC(=N)N)NC(=O)CNC(=O)[C@H](CCC(=O)O)NC(=O)[C@H](CC(C)C)NC(C)=O)C(C)C)[C@@H](C)CC)[C@@H](C)O)C(N)=O)C(=O)O)C(=O)O)C(=O)O` [compound 78] (Ac-LEGREKVRAK(Ac)I[Aib][Aib]EG[Nle]STYS[Aib]RKK(Ac)K([AEEA-AEEA-AEEA-γGlu-γGlu-γGlu-Stearoyl])-NH2): the EC50 came out at 1.04 nM and the Emax turned out to be 73%. The corresponding values for `CCCCCCCCCCCCCC(=O)N[C@@H](CCC(=O)N[C@@H](CCC(=O)N[C@@H](CCC(=O)N[C@@H](CCC(=O)NCCCC[C@H](NC(=O)COCCOCCNC(=O)COCCOCCNC(=O)COCCOCCNC(=O)COCCOCCNC(=O)[C@H](CCCCNC(C)=O)NC(=O)[C@H](C)NC(=O)[C@H](CCCNC(=N)N)NC(=O)[C@](C)(CCCCN)NC(=O)[C@H](CO)NC(=O)[C@H](Cc1ccccc1)NC(=O)[C@@H](NC(=O)[C@H](CO)NC(=O)[C@H](CCCC)NC(=O)CNC(=O)[C@H](CCC(=O)O)NC(=O)C(C)(C)NC(=O)C(C)(C)NC(=O)[C@@H](NC(=O)[C@H](CCCCNC(C)=O)NC(=O)[C@H](C)NC(=O)[C@H](CCCNC(=N)N)NC(=O)[C@@H](NC(=O)[C@H](CCCCN)NC(=O)[C@H](CCC(=O)O)NC(=O)[C@H](CCCNC(=N)N)NC(=O)CNC(=O)[C@H](CCC(=O)O)NC(=O)[C@H](CC(C)C)NC(C)=O)C(C)C)[C@@H](C)CC)[C@@H](C)O)C(N)=O)C(=O)O)C(=O)O)C(=O)O)C(=O)O` [compound 172] (Ac-LEGREKVRAK(Ac)I[Aib][Aib]EG[Nle]STFS[αMeK]RAK(Ac)[AEEA][AEEA][AEEA][AEEA]K([γGlu-γGlu-γGlu-γGlu-Myristoyl])-NH2) are 0.56 nM and 95%. On to `CCCCCCCCCCCCCCCC(=O)N[C@@H](CCC(=O)N[C@@H](CCC(=O)NCCCC[C@H](NC(=O)CC[C@H](NC(=O)CC[C@H](NC(=O)COCCOCCNC(=O)COCCOCCNC(=O)COCCOCCNC(=O)COCCOCCNC(=O)[C@H](CCCCNC(C)=O)NC(=O)[C@H](C)NC(=O)[C@H](CCCNC(=N)N)NC(=O)[C@](C)(CCCCN)NC(=O)[C@H](CO)NC(=O)[C@H](Cc1ccccc1)NC(=O)[C@@H](NC(=O)[C@H](CO)NC(=O)[C@H](CCC(N)=O)NC(=O)CNC(=O)[C@H](CCC(=O)O)NC(=O)C(C)(C)NC(=O)C(C)(C)NC(=O)[C@@H](NC(=O)[C@H](CCCCNC(C)=O)NC(=O)[C@H](C)NC(=O)[C@H](CCCNC(=N)N)NC(=O)[C@@H](NC(=O)[C@H](CCCCN)NC(=O)[C@H](CCC(=O)O)NC(=O)[C@H](CCCNC(=N)N)NC(=O)CNC(=O)[C@H](CCC(=O)O)NC(=O)[C@H](CC(C)C)NC(C)=O)C(C)C)[C@@H](C)CC)[C@@H](C)O)C(=O)O)C(=O)O)C(N)=O)C(=O)O)C(=O)O` [compound 185] (Ac-LEGREKVRAK(Ac)I[Aib][Aib]EGQSTFS[αMeK]RAK(Ac)[AEEA][AEEA][AEEA][AEEA][γGlu][γGlu]K([γGlu-γGlu-Palmitoyl])-NH2), for which the half-maximal effective concentration (EC50) was 0.05 nM and the maximal effect (Emax) was 100%. On to `CCCCCCCCCCCCCCCCCC(=O)N[C@@H](CCC(=O)N[C@@H](CCC(=O)N[C@@H](CCC(=O)NCCOCCOCC(=O)NCCOCCOCC(=O)NCCOCCOCC(=O)NCCOCCOCC(=O)NCCCC[C@H](NC(=O)[C@H](CCCCNC(C)=O)NC(=O)[C@H](CCCCN)NC(=O)[C@H](CCCNC(=N)N)NC(=O)C(C)(C)NC(=O)[C@H](CO)NC(=O)[C@H](Cc1c[nH]c2ccccc12)NC(=O)[C@@H](NC(=O)[C@H](CO)NC(=O)[C@H](CCCC)NC(=O)CNC(=O)[C@H](CCC(=O)O)NC(=O)C(C)(C)NC(=O)C(C)(C)NC(=O)[C@@H](NC(=O)[C@H](CCCCNC(C)=O)NC(=O)[C@H](C)NC(=O)[C@H](CCCNC(=N)N)NC(=O)[C@@H](NC(=O)[C@H](CCCCN)NC(=O)[C@H](CCC(=O)O)NC(=O)[C@H](CCCNC(=N)N)NC(=O)CNC(=O)[C@H](CCC(=O)O)NC(=O)[C@H](CC(C)C)NC(C)=O)C(C)C)[C@@H](C)CC)[C@@H](C)O)C(N)=O)C(=O)O)C(=O)O)C(=O)O` [compound 90] (Ac-LEGREKVRAK(Ac)I[Aib][Aib]EG[Nle]STWS[Aib]RKK(Ac)K([AEEA-AEEA-AEEA-AEEA-γGlu-γGlu-γGlu-Stearoyl])-NH2), for which the EC50 is 0.07 nM and the Emax came out at 89%.

`CCCCCCCCCCCCCCCCCCCCCC(=O)N[C@@H](CCC(=O)N[C@@H](CCC(=O)N[C@@H](CCC(=O)NCCOCCOCC(=O)NCCOCCOCC(=O)NCCOCCOCC(=O)NCCCC[C@H](NC(=O)[C@H](CCCCNC(C)=O)NC(=O)[C@H](CCCCN)NC(=O)[C@H](CCCNC(=N)N)NC(=O)C(C)(C)NC(=O)[C@H](CO)NC(=O)[C@H](Cc1c[nH]c2ccccc12)NC(=O)[C@@H](NC(=O)[C@H](CO)NC(=O)[C@H](CCCC)NC(=O)CNC(=O)[C@H](CCC(=O)O)NC(=O)C(C)(C)NC(=O)C(C)(C)NC(=O)[C@@H](NC(=O)[C@H](CCCCNC(C)=O)NC(=O)[C@H](C)NC(=O)[C@H](CCCNC(=N)N)NC(=O)[C@@H](NC(=O)[C@H](CCCCN)NC(=O)[C@H](CCC(=O)O)NC(=O)[C@H](CCCNC(=N)N)NC(=O)CNC(=O)[C@H](CCC(=O)O)NC(=O)[C@H](CC(C)C)NC(C)=O)C(C)C)[C@@H](C)CC)[C@@H](C)O)C(N)=O)C(=O)O)C(=O)O)C(=O)O` [compound 173] (Ac-LEGREKVRAK(Ac)I[Aib][Aib]EG[Nle]STWS[Aib]RKK(Ac)K([AEEA-AEEA-AEEA-γGlu-γGlu-γGlu-Docosanoyl])-NH2): the EC50 stood at 0.19 nM and the maximal effect (Emax) came to 85%. For `CCCCCCCCCCCCCCCCCC(=O)NCCOCCOCC(=O)NCCOCCOCC(=O)NCCOCCOCC(=O)NCCCC[C@H](NC(=O)[C@H](CCCCNC(C)=O)NC(=O)[C@H](CCCCN)NC(=O)[C@H](CCCNC(=N)N)NC(=O)C(C)(C)NC(=O)[C@H](CO)NC(=O)[C@H](Cc1c[nH]c2ccccc12)NC(=O)[C@@H](NC(=O)[C@H](CO)NC(=O)[C@H](CCCC)NC(=O)CNC(=O)[C@H](CCC(=O)O)NC(=O)C(C)(C)NC(=O)C(C)(C)NC(=O)[C@@H](NC(=O)[C@H](CCC(N)=O)NC(=O)[C@H](C)NC(=O)[C@H](CCCNC(=N)N)NC(=O)[C@@H](NC(=O)[C@H](CCCCN)NC(=O)[C@H](CCC(=O)O)NC(=O)[C@H](CCCNC(=N)N)NC(=O)CNC(=O)[C@H](CCC(=O)O)NC(=O)[C@H](CC(C)C)NC(C)=O)C(C)C)[C@@H](C)CC)[C@@H](C)O)C(N)=O` [compound 52] (Ac-LEGREKVRAQI[Aib][Aib]EG[Nle]STWS[Aib]RKK(Ac)K([AEEA-AEEA-AEEA-Stearoyl])-NH2), the Emax was determined as 98%.
